From patent US20220235043A1, “SUBSTITUTED SULFONAMIDE PYRROLOPYRIDINES AS JAK INHIBITORS” (ACLARIS THERAPEUTICS, INC., priority 2019, published 2022)

Experiments:
Tyk-2 = molecular target: T1, Tyk-2 (Homo sapiens, UniProt P29597); experiment: Tyk-2 enzyme activity assay (Thermo Fisher Selectscreen, Z-lyte); assay type: biochemical; settings: read-out: Tyk-2 Inhibition IC50
T1 construct: purchased Thermo Fisher Scientific (SelectScreen service)
Summary of the method: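 Z-lyte FRET assay with 3.75-15 ng TYK2 and 2 μM Tyr 03 peptide in 50 mM HEPES pH 7.0, 10 mM MgCl2, 1 mM EGTA, 0.01% BRIJ-35. Reaction ran one hour before development reagent was added. Compounds were tested in an 11-point dose-response; IC50 came from a 4-parameter logistic fit of emission ratio, normalised to no-enzyme and 2% DMSO vehicle controls.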

[1] = tested on: IL-12 stimulated STAT4 phosphorylation on Tyr693 (JAK2/TYK2); experiment: JAK2/TYK2 cellular target modulation: IL-12 stimulated phospho-STAT4 in human PBMC; assay type: cell-based; settings: IL-12 1.7 ng/ml, read-out: IL12-STAT4 IC50
Summary of the method: (§1)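 Thawed human PBMC (200,000/well) preincubated with compound 1 h at 37°C, then stimulated with IL-12 1.7 ng/ml for 25 min, IFNγ 10 ng/ml for 10 min, or IL-2 25 ng/ml for 5 min. Lysate phospho-STAT4 Tyr693 and phospho-STAT5 Tyr694 read by MSD; phospho-STAT1 Tyr701 by sandwich ELISA.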

JAK2 = molecular target: T2, JAK2 (Homo sapiens, UniProt O60674); experiment: JAK2 enzyme activity assay (Thermo Fisher Selectscreen, Z-lyte); assay type: biochemical; settings: read-out: JAK2 Inhibition IC50
T2 construct: purchased Thermo Fisher Scientific (SelectScreen service)
T2 sequence (O60674 whole entry): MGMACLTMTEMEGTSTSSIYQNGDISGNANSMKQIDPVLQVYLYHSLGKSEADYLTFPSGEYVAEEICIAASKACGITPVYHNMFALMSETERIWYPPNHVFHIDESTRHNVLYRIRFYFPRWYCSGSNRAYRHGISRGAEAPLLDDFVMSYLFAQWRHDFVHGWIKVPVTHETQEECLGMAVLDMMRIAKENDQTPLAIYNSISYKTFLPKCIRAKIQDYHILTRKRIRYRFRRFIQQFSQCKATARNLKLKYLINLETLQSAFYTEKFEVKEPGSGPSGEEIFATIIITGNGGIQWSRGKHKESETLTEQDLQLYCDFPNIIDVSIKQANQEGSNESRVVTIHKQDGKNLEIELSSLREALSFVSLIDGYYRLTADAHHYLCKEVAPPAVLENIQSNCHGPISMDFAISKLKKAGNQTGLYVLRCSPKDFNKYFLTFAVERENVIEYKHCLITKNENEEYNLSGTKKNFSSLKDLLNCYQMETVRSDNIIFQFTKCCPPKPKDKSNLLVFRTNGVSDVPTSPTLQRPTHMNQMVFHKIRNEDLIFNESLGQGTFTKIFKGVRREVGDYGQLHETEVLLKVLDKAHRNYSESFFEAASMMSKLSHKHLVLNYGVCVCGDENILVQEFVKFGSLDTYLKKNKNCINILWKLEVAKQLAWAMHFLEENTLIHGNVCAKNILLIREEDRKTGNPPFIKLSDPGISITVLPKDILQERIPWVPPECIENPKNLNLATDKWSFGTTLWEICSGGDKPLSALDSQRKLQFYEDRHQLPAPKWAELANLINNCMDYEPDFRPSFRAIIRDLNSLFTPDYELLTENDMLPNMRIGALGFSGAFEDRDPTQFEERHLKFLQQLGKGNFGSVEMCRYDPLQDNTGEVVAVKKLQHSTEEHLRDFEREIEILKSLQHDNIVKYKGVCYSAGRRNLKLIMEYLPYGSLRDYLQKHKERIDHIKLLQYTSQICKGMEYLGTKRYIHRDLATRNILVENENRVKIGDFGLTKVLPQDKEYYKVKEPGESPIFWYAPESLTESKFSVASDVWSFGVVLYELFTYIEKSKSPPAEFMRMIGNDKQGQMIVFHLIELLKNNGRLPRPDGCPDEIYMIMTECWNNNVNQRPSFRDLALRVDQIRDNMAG
Summary of the method: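 Z-lyte FRET kinase format: 0.12-0.5 ng JAK2 with 2 μM Tyr 06 peptide in HEPES pH 7.5, 10 mM MgCl2, 1 h reaction, then development reagent. Compounds were run as 11-point dose-response, 2% DMSO vehicle. IC50 came from 4-parameter logistic fit of emission ratio.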

[2] = tested on: IL-2 stimulated STAT5 phosphorylation on Tyr694 (JAK1/3); experiment: JAK1/3 cellular target modulation: IL-2 stimulated phospho-STAT5 in human PBMC; assay type: cell-based; settings: IL-2 25 ng/ml, read-out: IL2-STAT5 IC50
Summary of the method: as §1

JAK1 = molecular target: T3, JAK1 (Homo sapiens, UniProt P23458); experiment: JAK1 enzyme activity assay (Thermo Fisher Selectscreen, Z-lyte); assay type: biochemical; settings: read-out: JAK1 Inhibition IC50
T3 construct: purchased Thermo Fisher Scientific (SelectScreen service)
T3 sequence (P23458 whole entry): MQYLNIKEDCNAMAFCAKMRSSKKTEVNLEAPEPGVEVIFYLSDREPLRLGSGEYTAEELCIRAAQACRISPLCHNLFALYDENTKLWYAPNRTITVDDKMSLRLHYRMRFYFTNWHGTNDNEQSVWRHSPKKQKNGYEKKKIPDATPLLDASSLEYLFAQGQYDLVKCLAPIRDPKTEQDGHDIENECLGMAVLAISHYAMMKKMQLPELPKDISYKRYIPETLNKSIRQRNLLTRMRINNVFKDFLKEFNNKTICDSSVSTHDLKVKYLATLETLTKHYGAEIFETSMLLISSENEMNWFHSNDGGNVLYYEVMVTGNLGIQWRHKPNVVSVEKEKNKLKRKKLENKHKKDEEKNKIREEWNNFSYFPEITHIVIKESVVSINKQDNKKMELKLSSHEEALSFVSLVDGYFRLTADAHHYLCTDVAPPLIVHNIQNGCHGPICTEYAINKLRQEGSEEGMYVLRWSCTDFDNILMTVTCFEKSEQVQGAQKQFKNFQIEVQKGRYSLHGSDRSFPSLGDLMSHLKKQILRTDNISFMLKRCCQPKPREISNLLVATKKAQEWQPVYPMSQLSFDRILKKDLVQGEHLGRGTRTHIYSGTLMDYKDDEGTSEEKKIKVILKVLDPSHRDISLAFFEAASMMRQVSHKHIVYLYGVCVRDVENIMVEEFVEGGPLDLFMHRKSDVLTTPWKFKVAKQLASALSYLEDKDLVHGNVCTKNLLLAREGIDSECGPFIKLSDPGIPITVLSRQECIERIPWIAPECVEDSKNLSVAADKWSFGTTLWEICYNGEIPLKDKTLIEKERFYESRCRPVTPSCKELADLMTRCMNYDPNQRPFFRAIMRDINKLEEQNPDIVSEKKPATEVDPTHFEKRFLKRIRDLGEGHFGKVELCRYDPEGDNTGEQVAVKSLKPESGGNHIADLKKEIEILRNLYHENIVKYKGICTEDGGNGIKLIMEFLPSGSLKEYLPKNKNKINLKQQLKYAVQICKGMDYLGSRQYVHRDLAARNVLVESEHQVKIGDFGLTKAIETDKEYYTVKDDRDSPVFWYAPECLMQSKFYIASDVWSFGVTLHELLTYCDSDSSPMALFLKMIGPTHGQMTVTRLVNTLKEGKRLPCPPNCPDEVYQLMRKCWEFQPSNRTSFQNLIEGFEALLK
Summary of the method: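 Z-lyte FRET kinase assay with 21.2-91.5 ng JAK1 and 2 μM Tyr 06 peptide in 50 mM HEPES pH 7.0, 10 mM MgCl2, 1 h reaction before development reagent. Background without enzyme, uninhibited signal with 2% DMSO vehicle; 11-point dose-response, IC50 from 4-parameter logistic fit of emission ratio.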

T1 sequence (P29597 whole entry): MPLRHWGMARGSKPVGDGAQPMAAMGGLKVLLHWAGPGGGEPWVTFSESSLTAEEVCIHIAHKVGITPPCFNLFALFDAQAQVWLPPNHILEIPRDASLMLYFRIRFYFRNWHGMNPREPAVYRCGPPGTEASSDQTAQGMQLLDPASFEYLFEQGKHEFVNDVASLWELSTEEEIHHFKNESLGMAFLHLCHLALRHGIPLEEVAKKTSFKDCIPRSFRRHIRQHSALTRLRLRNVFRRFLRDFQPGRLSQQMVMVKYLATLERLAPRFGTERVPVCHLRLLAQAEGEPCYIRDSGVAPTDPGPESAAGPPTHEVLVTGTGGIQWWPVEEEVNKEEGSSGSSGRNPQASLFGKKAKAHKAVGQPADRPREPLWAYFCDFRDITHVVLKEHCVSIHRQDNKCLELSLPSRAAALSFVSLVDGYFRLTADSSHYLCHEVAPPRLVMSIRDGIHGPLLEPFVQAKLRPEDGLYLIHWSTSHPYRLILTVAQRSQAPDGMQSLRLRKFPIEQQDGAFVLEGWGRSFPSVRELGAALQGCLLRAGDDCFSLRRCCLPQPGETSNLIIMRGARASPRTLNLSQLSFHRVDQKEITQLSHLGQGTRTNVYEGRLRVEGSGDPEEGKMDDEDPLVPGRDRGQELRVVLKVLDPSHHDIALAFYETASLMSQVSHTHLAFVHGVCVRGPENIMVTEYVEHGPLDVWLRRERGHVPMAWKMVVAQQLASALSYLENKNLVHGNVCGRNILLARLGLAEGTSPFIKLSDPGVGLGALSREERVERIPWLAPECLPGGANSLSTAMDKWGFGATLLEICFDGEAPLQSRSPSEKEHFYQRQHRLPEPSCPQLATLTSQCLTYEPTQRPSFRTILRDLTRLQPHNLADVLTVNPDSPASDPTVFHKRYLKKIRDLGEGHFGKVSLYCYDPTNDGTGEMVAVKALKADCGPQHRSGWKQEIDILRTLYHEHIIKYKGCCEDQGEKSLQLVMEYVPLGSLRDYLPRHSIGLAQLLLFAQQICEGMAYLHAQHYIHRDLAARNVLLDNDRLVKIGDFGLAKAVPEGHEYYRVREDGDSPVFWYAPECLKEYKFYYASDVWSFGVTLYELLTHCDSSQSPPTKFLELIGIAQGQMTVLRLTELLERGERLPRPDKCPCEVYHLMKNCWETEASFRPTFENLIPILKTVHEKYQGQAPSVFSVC

## Cc1nnc(-c2cnc3[nH]ccc3c2N[C@H]2C[C@@H](NS(=O)(=O)c3cccc(C#N)c3)C2)s1 [Example 75, 3-cyano-N-((1s,3s)-3-((5-(5-methyl-1,3,4-thiadiazol-2-yl)-1H-pyrrolo[2,3-b]pyridin-4-yl)amino)cyclobutyl)benzenesulfonamide]
Tyk-2
  IC50: ≤ 10 nM
[1]
  IC50: 100 to 1000 nM
JAK2
  IC50: ≤ 10 nM
[2]
  IC50: ≤ 100 nM
JAK1
  IC50: ≤ 10 nM
